Molecular target: T1, MAP4K2 (GCK) (Homo sapiens, UniProt Q12851)
T1 construct: purchased Thermo Fisher Scientific (Life Technologies) SelectScreen
Assay: SelectScreen Z'LYTE
Type: biochemical
How it was run: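 SelectScreen broad panel; activity (Z'LYTE, Adapta) plus binding formats. ATP: Km app for CSF1R Z'LYTE; 10 for CAMK1 Adapta. Readout = % per kinase.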

T1 sequence (Q12851 whole entry): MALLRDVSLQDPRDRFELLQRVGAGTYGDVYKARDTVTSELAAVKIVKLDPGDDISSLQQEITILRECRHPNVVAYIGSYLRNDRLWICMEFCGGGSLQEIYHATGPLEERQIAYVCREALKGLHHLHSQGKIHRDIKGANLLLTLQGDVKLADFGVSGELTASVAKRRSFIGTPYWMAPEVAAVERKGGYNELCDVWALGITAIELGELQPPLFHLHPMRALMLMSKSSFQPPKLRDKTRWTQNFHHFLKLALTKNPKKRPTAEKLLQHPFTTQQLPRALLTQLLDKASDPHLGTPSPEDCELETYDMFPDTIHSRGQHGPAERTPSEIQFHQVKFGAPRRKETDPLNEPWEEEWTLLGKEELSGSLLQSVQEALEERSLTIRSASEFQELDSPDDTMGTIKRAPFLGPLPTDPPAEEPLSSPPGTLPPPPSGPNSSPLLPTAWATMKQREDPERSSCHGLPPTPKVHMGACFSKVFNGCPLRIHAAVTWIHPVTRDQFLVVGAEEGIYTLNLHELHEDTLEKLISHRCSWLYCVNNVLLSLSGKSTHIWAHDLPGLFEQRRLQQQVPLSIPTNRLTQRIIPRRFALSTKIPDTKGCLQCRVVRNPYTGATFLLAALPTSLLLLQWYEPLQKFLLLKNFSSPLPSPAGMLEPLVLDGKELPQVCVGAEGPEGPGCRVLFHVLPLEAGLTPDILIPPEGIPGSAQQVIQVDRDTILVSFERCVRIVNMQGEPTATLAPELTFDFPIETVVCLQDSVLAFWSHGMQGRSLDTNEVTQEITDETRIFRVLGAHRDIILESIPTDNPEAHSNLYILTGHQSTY

CN(C(=O)CN1CCOCC1)c1ccc2sc3c(-c4cccc5c(=O)cc(N6CC7CCC(C6)O7)oc45)cccc3c2c1 [NU5455]
inhibition at 1 µM: 2.7%
